Source: article PMC7075946 (Frontiers in Immunology, 2020)

Legend:
[1] = system: A/Victoria/210/2009 (H3N2); assay: Splenocyte restimulation, influenza-specific T cell responses (flow cytometry, MSD); assay type: in vivo, BALB/c mice; details: for influenza-specific T cell response (cytokine production of restimulated splenocytes): 5 days post-secondary vaccination, A/Vic restimulation, vs A/Vic alone
[2] = target: T1, human TLR8 (Homo sapiens, UniProt Q9NR97); assay: cell-based
T1 sequence (Q9NR97 27-1041): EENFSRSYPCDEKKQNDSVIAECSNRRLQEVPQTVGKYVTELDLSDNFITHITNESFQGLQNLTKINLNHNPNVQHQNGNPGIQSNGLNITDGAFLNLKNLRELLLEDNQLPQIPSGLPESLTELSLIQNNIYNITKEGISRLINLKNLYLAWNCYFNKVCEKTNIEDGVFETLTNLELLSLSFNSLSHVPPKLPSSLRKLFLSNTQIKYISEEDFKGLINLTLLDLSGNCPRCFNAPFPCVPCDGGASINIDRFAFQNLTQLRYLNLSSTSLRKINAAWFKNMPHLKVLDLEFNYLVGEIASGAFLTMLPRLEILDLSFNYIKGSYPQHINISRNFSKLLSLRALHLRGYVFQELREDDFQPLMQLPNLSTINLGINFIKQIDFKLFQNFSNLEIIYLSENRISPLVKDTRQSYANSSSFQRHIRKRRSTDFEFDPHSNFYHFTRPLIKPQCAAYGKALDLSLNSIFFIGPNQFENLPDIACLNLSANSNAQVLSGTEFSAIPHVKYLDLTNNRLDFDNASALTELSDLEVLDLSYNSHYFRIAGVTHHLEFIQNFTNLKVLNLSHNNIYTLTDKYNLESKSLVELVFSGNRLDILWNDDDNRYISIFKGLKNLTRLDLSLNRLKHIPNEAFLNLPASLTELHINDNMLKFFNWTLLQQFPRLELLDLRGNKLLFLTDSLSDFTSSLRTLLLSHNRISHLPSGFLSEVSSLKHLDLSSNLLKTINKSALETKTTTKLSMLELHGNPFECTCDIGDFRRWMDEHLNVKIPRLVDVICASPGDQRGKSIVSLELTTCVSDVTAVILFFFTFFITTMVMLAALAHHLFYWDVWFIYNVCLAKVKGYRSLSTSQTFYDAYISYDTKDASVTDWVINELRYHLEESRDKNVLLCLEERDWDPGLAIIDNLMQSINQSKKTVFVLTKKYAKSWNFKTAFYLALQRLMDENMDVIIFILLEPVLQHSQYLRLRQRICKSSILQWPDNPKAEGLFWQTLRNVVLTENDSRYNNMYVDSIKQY

[3] = system: A/Victoria/210/2009 (H3N2); assay: ELISA of influenza-specific serum antibody titers in mice given adjuvanted A/Vic vaccine
[4] = system: human PBMCs; assay: Human PBMC intracellular cytokine staining (flow cytometry); assay type: cell-based; details: for frequency of classical monocytes producing IL-12p40 / frequency of mDC producing IL-12p40: 1 h plus 5 h GolgiPlug
Description: Human blood was obtained from healthy adult donors through a University of Montana Institutional Review Board (IRB)-approved protocol. PBMCs were separated from whole blood via density gradient separation using Histopaque 1,077 (Sigma). For PBMC-based assays, cells were resuspended at the desired cell concentration in complete media (RPMI1640+10% FBS+antibiotics). Cells were treated with the indicated compound concentrations and stimulated for 6–24 h depending on the assay as indicated in the figure legends and assays outlined below.
For flow cytometry analysis of innate cytokines, PBMCs were stimulated with indicated concentration of compound for 1 h followed by 5 h incubation with GolgiPlug (BD, 1 μL/mL) at 37°C. Post-stimulation, cells were harvested and surface stained with viability dye, and monoclonal antibodies targeting CD3 AF700 (Tonbo Bioscience, UCHT1), CD19 AF700 (Tonbo Bioscience, HIB19), CD56 AF700 (Biolegend, 5.1H11), HLA-DR BV785 (Biolegend, L243), CD14 APC-Cy7 (Biolegend, 63D3), CD16 PE-Dazzle594 (Biolegend, 3G8), CD11c BV421 (Biolegend, 3.9), and CD123 APC (Biolegend, 6H6). Following fixation and permeabilization with BD Cytofix/Cytoperm buffers, cells were stained with monoclonal antibodies targeting the intracellular cytokines IL-12p40 PE (a shared IL-12 and IL-23 subunit, Biolegend, C11.5), IL-6 FITC (Biolegend MQ2-13A5), IL-4 BV605 (Biolegend, MP4-25D2), and LAP (TGF-β) PE Cy7 [latency-associated peptide ([55]), Biolegend TW4-2F8]. Data were collected using an LSRII flow cytometer (BD) and analyzed using FlowJo 10.0 software (TreeStar).
Figure 7 Lipidated imidazoquinolines elicit T cell polarizing cytokines primarily from APCs. PBMCs from 6 healthy, adult blood donors were stimulated with 2 μM indicated TLR7/8, TLR4, or combination TLR4 + TLR7/8 agonists. After 1 h, brefeldin A (GolgiPlug) was added and cells were incubated for a further 5 h. Cells were then harvested and stained with surface antibodies for phenotyping, fixed and permeablized and stained with antibodies to detect intracellular cytokines. (A) Frequency of IL-12/IL-23+ cells, (B) frequency of IL-6+ cells, (C) frequency of TGFβ (LAP)+ cells, and (D) frequency of IL-4+ cells.

Structure (SMILES)	influenza-specific T cell response (cytokine production of restimulated splenocytes) [1]	frequencies of CD8 IFNγ+ cells ([1]; high dose 10 μg/mouse, with or without a TLR4 agonist, 5dp2)	EC50 [2]	average fold change of IgG2a vs IgG1 titers over A/Vic alone ([3]; mouse, in vivo)	frequency of classical monocytes producing IL-12p40 ([4]; 2 μM)	frequency of mDC producing IL-12p40 ([4]; 2 μM)	IL-17 response compared to A/Vic antigen alone ([1]; challenge study, 10 μg/mouse alone, 5dp2)	average fold change of IgG2a vs IgG1 titers over A/Vic alone ([3]; 14 days post-primary (14dp1))	frequency of mDC and classical monocytes expressing TGFβ (LAP) ([4]; compound alone, 2 μM)	frequency of mDC and classical monocytes expressing TGFβ (LAP) ([4]; in combination with CRX-601, 2 μM)
CCCCCCCC/C=C\CCCCCCCC(=O)OC[C@H](COP(=O)(O)OCCc1ccc2c(c1)nc(N)c1nc(CCCC)n(CCO)c12)OC(=O)CCCCCCC/C=C\CCCCCCCC [UM-3005]	primarily a Th1 influenza-specific response	significantly increased	0.27 µM	IgG2a titers were increased more than IgG1 titers	approximately 20%	approximately 20%				
CCCCCCCCCCCCCCCC(=O)OC[C@H](COCCOCCOCCOP(=O)(O)OCCn1c(CCCC)nc2c(N)nc3ccccc3c21)OC(=O)CCCCCCCCCCCCCCC [UM-3003]	primarily a Th1 influenza-specific response		52.5 µM	IgG2a titers were increased more than IgG1 titers	Lower frequencies	Lower frequencies	no longer elicited a significantly higher IL-17 response			
CCCCc1nc2c(N)nc3ccccc3c2n1CCO [UM-3001]	did not exhibit any significantly increased cytokine production		0.53 µM			approximately 20%		approximately equal increase in both IgG2a and IgG1 titers	low frequencies	low frequencies
CCCCCCCCCCCCCCCC(=O)OC[C@H](COCCOCCOCCOCCOCCOCCOP(=O)(O)OCCn1c(CCCC)nc2c(N)nc3ccccc3c21)OC(=O)CCCCCCCCCCCCCCC [UM-3004]	primarily a Th1 influenza-specific response		24.6 µM		Lower frequencies	Lower frequencies		IgG2a titers were increased more than IgG1 titers		
